“And” between values parts separate entries of the source, which are not always exact repeats. Identical values can stand only once. “Also recorded” adds a separate entry of the source. Counter-ions that a name gives are not always drawn. Like-named read-outs stand apart in the source and are kept apart here. One block for each compound: values may come before it.
Tests used:
P388 cells = test: Cytotoxicity, murine P388 leukemic cells (P388 D1); conditions: read-out: P388 cells IC50
[1] = test system: ITZ-resistant Aspergillus fumigatus; test: MIC and MLC, ITZ-resistant Aspergillus fumigatus, broth macrodilution; conditions: for MIC: 48 h
CEM cells = test: Cytotoxicity, CEM human T-lymphocytes; conditions: for IC50: Homo sapiens, CCRF-CEM; for TIL1210 (CEM cells): IC50 T-lymphocytes (CEM)/IC50 L1210; for TIP388 (CEM cells): IC50 T-lymphocytes (CEM)/IC50 P388; for TIht (CEM cells): IC50 T-lymphocytes (CEM)/IC50 human tumors
L1210 cells = test: Cytotoxicity, murine L1210 leukemic cells; assay type: cell-based; conditions: Mus musculus, mean
Aspergillus fumigatus [2] = test: Murine pulmonary aspergillosis model; assay type: in vivo, Aspergillus fumigatus in DBA/2J female mice
Method: In vivo susceptibility studies: DBA/2J female mice (Jackson Laboratories) weighing 20-23 grams (≈6 weeks old) were used. The mice were immunosuppressed by 3 consecutive subcutaneous injections (0.5 ml each) of cortisone acetate (250 mg/kg; Sigma Chemical Company) in sterile distilled water containing 0.1% Tween 80. The immunosuppressed mice were anesthetized by exposing to ether in a desiccator for 45±5 seconds and infected with 20 μl inoculum containing 1×10^6 conidia delivered to the nares of the animals as a single droplet from a micropipet. Compound 9b and AMB were dissolved in dimethyl sulfoxide (DMSO) and administered 24 hr post infection by intraperitoneal injection in 0.2 ml PBS per dose. […] The efficacy of chemotherapy was assessed by determining percent survival and the fungal load (CFU/lungs) of infected animals as determined by semiquantitative organ culture.

Aspergillus fumigatus [3] = test: MIC and MLC, Aspergillus fumigatus, broth macrodilution
human tumors = test: Cytotoxicity, human tumor cell line panel (approximately 55 lines)
Molt 4/C8 cells = test: Cytotoxicity, Molt 4/C8 human T-lymphocytes; conditions: for TIL1210 (Molt 4/C8 cells): IC50 T-lymphocytes (Molt 4/C8)/IC50 L1210; for TIP388 (Molt 4/C8 cells): IC50 T-lymphocytes (Molt 4/C8)/IC50 P388; for TIht (Molt 4/C8 cells): IC50 T-lymphocytes (Molt 4/C8)/IC50 human tumors
[4] = test system: pathogenic yeasts and filamentous fungi; test: Screening of conjugated styryl ketones against pathogenic yeasts and filamentous fungi; assay type: cell-based
Source text: Approximately 90 compounds belonging to the conjugated styryl ketone class were screened for their activity against pathogenic yeasts and filamentous fungi. […] Since none of the previously examined compounds provided encouraging results for further studies, a series of α,β-unsaturated ketones with two sites for thiol alkylation reaction were synthesized.

[5] = test system: Aspergillus fumigatus conidia; test: Kill-curve experiment, Aspergillus fumigatus conidia; assay type: cell-based
Method: Kill-Curve Experiment: 5 ml conidial suspension each of the AMB-, and ITZ-susceptible (W73355) and the resistant (AB16.4 and ITZ70) isolates prepared in PYG broth (1×10^6 conidia/ml) was incubated at 35° C. in the presence of 5 μm of AMB or 5 μm ITZ or 50 μm Compound 9b. At various time intervals, 0.1 ml aliquots of the conidial suspension were removed, diluted appropriately to obtain 10^2 to 10^4 fold dilution, and 0.1 ml aliquots were spread in duplicate on PYG agar plates. […] Identical treatment of the conidial suspension in the absence of the drug was used as the growth control.

[6] = test system: AMB-resistant Aspergillus fumigatus; test: MIC and MLC, AMB-resistant Aspergillus fumigatus, broth macrodilution; conditions: for MIC: 48 h
Candida albicans = test: Vaginal candidiasis in ovariectomized rats; assay type: in vivo, Candida albicans in ovariectomized rats; conditions: in Mineral Oil
Method: As well, ovariectomized rats predisposed for Candida albicans infection by estrogen treatment were infected vaginally with 1×10^7 CFU per ml to produce vaginal candidiasis. The infected animals were treated with Compound 9b once daily (100 mg/kg=2 mg/[…]) for 5 days. Vaginal fluid was collected from each animal 72 hr post-treatment and CFUs per rat were determined by plating the […] fluid on PYG agar containing 200 ug/ml gentamicin.

[7] = test system: P388 lymphocytic leukemia; test: Murine P388 lymphocytic leukemia in vivo screen
Method: In order to evaluate whether these promising results could be translated into in vivo activity, two representative compounds 9d and 10a were chosen. […] These two compounds were examined in the murine P388 screen and against certain human tumors in athymic mice.
(§1) The compounds were examined by the Developmental Therapeutics Program, National Cancer Institute, U.S.A. The murine P388 lymphocytic leukemia assay was conducted by a reported known method and the maximum ILS figures for 9d and 10a were 5 and 20% respectively using doses of 54 and 6.7 mg/kg respectively. An increase of 20% or more in the life spans is considered to be statistically significant. A reference drug 5-fluorouracil has an ILS of >35 using a dose of 20 mg/kg when given intraperitoneally for five days. Passage of human tumors in athymic mice was undertaken by a known method. No definitions of activity are available but as a general rule compounds causing a 60% reduction in tumor weights in one of these screens would be evaluated further.

NCI-H522 = NCI-H522 human non-small cell lung tumor xenograft in athymic mice; assay type: in vivo; conditions: 80 mg/kg
Method: as §1

SW-620 = SW-620 human colon tumor xenograft in athymic mice; assay type: in vivo; conditions: 80 mg/kg
Method: as §1

human Jurkat T cells [8] = test: Growth inhibition of Jurkat T cells, trypan blue exclusion test; assay type: cell-based; conditions: read-out: growth of Jurkat T cells inhibited by 50% (IC50), 48 hours, 37° C., trypan blue
Method: All cell cultures used were maintained in RPMI 1640 medium, pH 7.4 supplanted with 10% fetal bovine serum and 50 μg/ml of gentamycin in 25 ml culture flasks at 37° C. in a humidified gas mixture of 5% carbon dioxide balanced with air and were passaged three times a week.
(§2) Cell viability was determined by the trypan blue exclusion test according to a literature procedure (Duke and Cohen, 1992). […] A flask containing ~10^6 cells/ml and 8 or […] of DMSO was used as the control. […] After 48 hours, cells were counted using a haemocytometer. The percentage of growth inhibition was calculated as follows: (C-T/C)×100 where C is the mean cell number in the control and T is the mean cell number in each treatment. […] All experiments were performed in triplicate.

[9] = test system: Jurkat T, LV-50, H-9 and Molt-3 cells; test: Cell viability of Jurkat T, LV-50, H-9 and Molt-3 cells; assay type: cell-based; conditions: 10 μM, 24 hour
Method: FIG. 5 is a graph showing percent viability of Jurkat T, LV-50, H-9 and Molt 3 cells after exposure to 10 μM of compound 9d for a 24 hour period with error bars representing mean±standard deviation in three separate experiments;
as §2

human Jurkat T cells [10] = test: Apoptosis, fluorescence microscopy with acridine orange and ethidium bromide; conditions: for percentage of apoptotic cells: 17 hours, control 4.4%
human Jurkat T cells [11] = test: DNA fragmentation by agarose gel electrophoresis; assay type: cell-based; conditions: Compound 9d 6 and 10 μM; melphalan 10 μM
COLO 205 = COLO 205 human colon tumor xenograft in athymic mice; assay type: in vivo
Method: as §1

LOX IMVI = LOX IMVI human melanoma xenograft in athymic mice; assay type: in vivo, human tumor in athymic mice; conditions: 80 mg/kg
Method: as §1

[12] = test system: proton translocating ATPase of Saccharomyces cerevisiae; conditions: cited from earlier work
human WiDr colon cancer = conditions: hydrobromide salt; human WiDr colon cancer in vitro; cited from earlier work
[13] = read-out: human tumors IC50, mean graph midpoint, approximately 55 cell lines, hydrobromide salts used for 4a, 11a-e

Structure (SMILES): CCN1CCC(O)(/C=C/c2ccc(Cl)cc2)C(C(=O)/C=C/c2ccc(Cl)cc2)C1 (stereo not drawn) [Compound 9b, (3-[3-(4-chlorophenyl)-2-propenoyl]-4-[2-(4-chlorophenyl)vinylene]-1-ethyl-4-piperidinol hydrochloride]
IC50 (P388 cells): 1.1 µM
MIC ([1]; read-out: MIC Mean ± SD): 10.9 ± 6.35 µM
MIC ([1]; read-out: MIC Range): 3.12 to 25 µM
MFC ([1]; read-out: MLC Range): 6.25 to 25 µM
IC50 (CEM cells; read-out: CEM cells IC50): 20.1 µM
IC50 (CEM cells; read-out: IC50 CEM): 20.1 µM
TIL1210 (CEM cells) (CEM cells): 2.89
TIP388 (CEM cells) (CEM cells): 18.31
TIht (CEM cells) (CEM cells): 0.78
IC50 (L1210 cells): 6.96 µM
reduction in CFU/lung (Aspergillus fumigatus [2]; 6.25 mg/kg/day): 50%
mortality rate (Aspergillus fumigatus [2]; 6.5 mg/kg/day for five days, mice): did not show any greater mortality rate than the placebo or the AMB-treated groups
fungal load of infected animals (in words) (Aspergillus fumigatus [2]; mouse, in vivo, hydrochloride): reduced significantly; also recorded: not as efficient as AMB for the reduction of fungal load
survival of infected animals (Aspergillus fumigatus [2]; vs DMSO placebo): did not improve significantly over the placebo group
MIC (Aspergillus fumigatus [3]; Aspergillus fumigatus, 48 h, read-out: MIC Mean ± SD): 11.9 ± 5.32 µM
MIC (Aspergillus fumigatus [3]; Aspergillus fumigatus, 48 h, read-out: MIC Range): 6.25 to 25 µM
MFC (Aspergillus fumigatus [3]; Aspergillus fumigatus, read-out: MLC Range): 12.5 to 25 µM
MIC (Aspergillus fumigatus [3]; Aspergillus fumigatus, read-out: mean MIC value): 11.9 µM
effectiveness compared with ITZ and AMB (Aspergillus fumigatus [3]; susceptible isolates): less effective than ITZ and AMB in susceptible isolates
MLC values relative to MIC values (Aspergillus fumigatus [3]; various Aspergillus fumigatus isolates): either the same as or twofold higher than the MIC values
IC50 relative to mean MIC for Aspergillus fumigatus (human tumors; mammalian cells (human tumor; b359 also Molt 4/C8 and CEM)): 2-3 fold
IC50 (human tumors; [13]): 25.7 µM
IC50 (human tumors; read-out: mean IC50 value for 55 different human tumour cells): 25.7 µM
TIL1210 (Molt 4/C8 cells) (Molt 4/C8 cells): 4.46
TIP388 (Molt 4/C8 cells) (Molt 4/C8 cells): 28.24
TIht (Molt 4/C8 cells) (Molt 4/C8 cells): 1.21
IC50 (Molt 4/C8 cells; read-out: IC50 Molt 4/C8): 31.1 µM
IC50 (Molt 4/C8 cells; read-out: Molt 4/C8 cells IC50): 31.1 µM
antifungal activity (in words) [4]: activity against both pathogenic yeasts and filamentous fungi at low concentrations
killing at 50 µM ([5]; Aspergillus fumigatus, 50 μm, within 24 hr): ≥ 90%
fungicidal activity against AMB-resistant and ITZ-resistant isolates ([5]; data not shown): as susceptible to the fungicidal activity of Compound 9b as the susceptible one
MIC ([6]; read-out: MIC Mean ± SD): 9.85 ± 3.53 µM
MIC ([6]; read-out: MIC Range): 6.25 to 12.5 µM
MFC ([6]; read-out: MLC Range): 12 to 25 µM
% CFU reduction (Candida albicans): 97.4%
Mean Value CFU/rat (Candida albicans; mean of 6 animals, S.D. 1.7 × 10^4): 1.2 × 10^4 CFU/rat
CFU/rat (Candida albicans; individual animals, 100 mg/kg once daily for 5 days, 72 hr post-treatment, hydrochloride, 100 mg/kg): 4.6 × 10^4 CFU/rat and 4.2 × 10^3 CFU/rat and 8.3 × 10^2 CFU/rat and 1.7 × 10^4 CFU/rat and 3.5 × 10^2 CFU/rat and 6.5 × 10^3 CFU/rat

IC50 (human Jurkat T cells [8]): 3.46 µM
Structure (SMILES): CCN1CCC(O)(/C=C/c2ccc(C)cc2)C(C(=O)/C=C/c2ccc(C)cc2)C1 (stereo not drawn) [Compound 9d]
maximum ILS, murine P388 ([7]; 54 mg/kg): 5%
activity in the murine P388 screen ([7]; in words): inactive
IC50 (P388 cells): 2.1 µM
IC50 (CEM cells; read-out: CEM cells IC50): 14 µM
TIL1210 (CEM cells) (CEM cells): 2.31
TIP388 (CEM cells) (CEM cells): 6.69
TIht (CEM cells) (CEM cells): 2.80
IC50 (L1210 cells): 6.08 µM
% ILS (NCI-H522): -2%
% T/C (NCI-H522): 23%
selective/preferential cytotoxicity towards colon cancer cells (human tumors; human tumor screen): preferential cytotoxicity towards human colon cells; also recorded: preferential cytotoxicity to colon; also recorded: selective toxicity to human colon cancer cells
IC50 (human tumors; [13]): 5.01 µM
% ILS (SW-620): 9%
% T/C (SW-620): 32%
cytotoxicity to murine leukemic and human tumor cells vs T-lymphocytes (Molt 4/C8 cells): greater cytotoxicity to murine leukemic cells and human tumor cell lines than to T-lymphocytes
TIL1210 (Molt 4/C8 cells) (Molt 4/C8 cells): 4.44
TIP388 (Molt 4/C8 cells) (Molt 4/C8 cells): 12.85
TIht (Molt 4/C8 cells) (Molt 4/C8 cells): 5.39
IC50 (Molt 4/C8 cells; read-out: Molt 4/C8 cells IC50): 27 µM
sensitivity of cell lines [9]: Jurkat T cells were the most sensitive in its response, although all cell cultures were affected
apoptotic index / apoptosis induction (in words) (human Jurkat T cells [10]): the apoptotic index increased almost two fold; also recorded: greater apoptotic index than melphalan; also recorded: more potent inducer of apoptosis; also recorded: potent apoptotic agent
time after which apoptotic effects were detectable (human Jurkat T cells [10]): 3 h
morphological features (human Jurkat T cells [10]; 6 μM, 17 h): characteristic blebbing and apoptotic bodies
percentage of apoptotic cells (human Jurkat T cells [10]; 6 μM): 22%
percentage of apoptotic cells (human Jurkat T cells [10]; 10 μM): 43%
death of treated cells (human Jurkat T cells [10]; 48 hours): all the treated cells had died
DNA ladder / DNA fragmentation (human Jurkat T cells [11]): did not show any DNA ladder; also recorded: no DNA fragmentation was detected
% ILS (COLO 205; COLO 205, 200 mg/kg, increase in median time to reach a certain size): 28%
percent reduction in median tumor weight (COLO 205; COLO 205, 200 mg/kg, percentage reduction of median tumor weight): 57%
reduction in the weight of the human COLO 205 colon tumor (COLO 205; athymic mice, Example 5): 60%
% ILS (LOX IMVI): 12%
% T/C (LOX IMVI): 35%

Structure (SMILES): COc1ccc2[nH]c([S+]([O-])Cc3ncc(C)c(OC)c3C)nc2c1 (stereo not drawn) [omeprazole]
inhibition of proton translocating ATPase [12]: inhibited the proton translocating ATPase of Saccharomyces cerevisiae

Structure (SMILES): CCN(CC)CC(C)(C)C(=O)/C=C/c1ccc(Cl)cc1 [Compound 7]
IC50 (P388 cells): 2.2 µM
IC50 (CEM cells; read-out: CEM cells IC50): 1.94 µM
TIL1210 (CEM cells) (CEM cells): 0.30
TIP388 (CEM cells) (CEM cells): 0.88
IC50 (L1210 cells): 6.39 µM
activity relative to 5-fluorouracil (human WiDr colon cancer): 1.3 times
TIL1210 (Molt 4/C8 cells) (Molt 4/C8 cells): 1.13
TIP388 (Molt 4/C8 cells) (Molt 4/C8 cells): 3.29
TIP388 and TIL1210 compared with compound 1b (Molt 4/C8 cells; human T-lymphocytes): inferior TIP388 and TIL1210 values than compound 1b
IC50 (Molt 4/C8 cells; read-out: Molt 4/C8 cells IC50): 7.24 µM
